These results are taken from ChEMBL document CHEMBL4425171, “Cholinesterase inhibitory activity of chlorophenoxy derivatives-Histamine H3 receptor ligands” (Bioorg Med Chem Lett, 2016).

Active and inactive are the calls of the source. The rule behind the calls is not given here.

For test [1], the target named is Acetylcholinesterase (Electrophorus electricus, UniProt O42275). Description: Inhibition of electric eel AChE using acetylthiocholine iodide as substrate preincubated for 5 mins followed by substrate addition measured after 5 mins by Ellmans method.
The target of test [2] is T1, Cholinesterase (Equus caballus, UniProt P81908).
Description: Inhibition of equine serum BChE using butyrylthiocholine chloride as substrate preincubated for 5 mins followed by substrate addition measured after 5 mins by Ellmans method
Test [3] addresses Cholinesterase (Equus caballus) (UniProt P81908). Description: Inhibition of equine serum BChE using butyrylthiocholine chloride as substrate at 10 uM preincubated for 5 mins followed by substrate addition measured after 5 mins by Ellmans method. (Ellman's reagent forms a yellow product with free thiols.)
The target in test [4] is Acetylcholinesterase (Electrophorus electricus) (UniProt O42275). Description: Mixed-type inhibition of electric eel AChE using acetylthiocholine iodide as substrate at 5 to 20 uM by Lineweaver-Burk double reciprocal plot analysis.
For test [5] the target is unchanged. Briefly: Inhibition of electric eel AChE using acetylthiocholine iodide as substrate at 10 uM preincubated for 5 mins followed by substrate addition measured after 5 mins by Ellmans method.
Test [6] deals with T1, Cholinesterase. Description: Inhibition of equine serum BChE using butyrylthiocholine chloride as substrate preincubated for 4.5 mins followed by substrate addition measured after 2.5 mins by Ellmans method.
Test [7] deals with Acetylcholinesterase (Electrophorus electricus) (UniProt O42275). Description: Mixed-type inhibition of electric eel AChE using acetylthiocholine iodide as substrate at 2 to 10 uM by Lineweaver-Burk double reciprocal plot analysis.
Test [8] addresses Cholinesterase (Equus caballus) (UniProt P81908). Description: Non-competitive inhibition of equine serum BChE using butyrylthiocholine chloride as substrate at 2 to 5 uM by Lineweaver-Burk double reciprocal plot analysis.
Test [9] concerns the target Histamine H3 receptor (Homo sapiens, UniProt Q9Y5N1). Briefly: biochemical.
Description: Displacement of [3H]Nalpha-methylhistamine from human full length recombinant histamine H3 receptor expressed in HEK293 cell membranes after 90 mins by liquid scintillation counting method

Chain of Cholinesterase (Equus caballus) (P81908 whole entry): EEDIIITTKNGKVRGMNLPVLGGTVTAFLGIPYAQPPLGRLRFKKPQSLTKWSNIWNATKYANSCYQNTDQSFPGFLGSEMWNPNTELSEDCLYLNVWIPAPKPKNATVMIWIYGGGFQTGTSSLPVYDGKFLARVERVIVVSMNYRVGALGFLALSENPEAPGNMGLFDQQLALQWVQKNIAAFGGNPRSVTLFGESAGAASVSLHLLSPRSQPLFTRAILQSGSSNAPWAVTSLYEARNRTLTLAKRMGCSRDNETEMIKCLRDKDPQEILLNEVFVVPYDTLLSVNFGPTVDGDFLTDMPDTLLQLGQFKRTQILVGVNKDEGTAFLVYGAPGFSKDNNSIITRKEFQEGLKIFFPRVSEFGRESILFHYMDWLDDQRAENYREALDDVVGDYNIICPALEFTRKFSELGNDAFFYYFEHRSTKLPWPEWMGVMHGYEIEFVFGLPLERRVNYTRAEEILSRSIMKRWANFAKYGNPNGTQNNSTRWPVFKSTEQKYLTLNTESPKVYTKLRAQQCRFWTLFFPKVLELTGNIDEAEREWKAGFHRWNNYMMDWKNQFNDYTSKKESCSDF
T1 sequence (P81908 whole entry): as above
Chain of Acetylcholinesterase (O42275 whole entry): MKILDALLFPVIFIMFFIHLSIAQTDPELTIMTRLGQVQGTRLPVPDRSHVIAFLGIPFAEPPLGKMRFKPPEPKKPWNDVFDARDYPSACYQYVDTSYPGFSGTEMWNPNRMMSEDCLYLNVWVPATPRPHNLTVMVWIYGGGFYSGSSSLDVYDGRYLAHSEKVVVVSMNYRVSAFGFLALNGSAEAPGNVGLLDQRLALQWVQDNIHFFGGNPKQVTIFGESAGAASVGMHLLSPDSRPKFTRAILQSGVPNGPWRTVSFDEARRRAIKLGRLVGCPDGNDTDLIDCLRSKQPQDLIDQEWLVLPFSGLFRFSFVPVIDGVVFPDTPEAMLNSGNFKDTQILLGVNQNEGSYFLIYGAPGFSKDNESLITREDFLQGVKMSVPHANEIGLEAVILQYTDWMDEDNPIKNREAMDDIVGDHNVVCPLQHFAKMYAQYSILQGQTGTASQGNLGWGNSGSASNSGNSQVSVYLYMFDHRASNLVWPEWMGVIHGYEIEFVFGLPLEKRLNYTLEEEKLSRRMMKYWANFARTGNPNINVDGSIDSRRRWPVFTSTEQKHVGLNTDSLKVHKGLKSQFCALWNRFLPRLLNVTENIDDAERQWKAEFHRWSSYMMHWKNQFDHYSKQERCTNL
Chain of Acetylcholinesterase (Electrophorus electricus) (O42275 24-633 limits assumed): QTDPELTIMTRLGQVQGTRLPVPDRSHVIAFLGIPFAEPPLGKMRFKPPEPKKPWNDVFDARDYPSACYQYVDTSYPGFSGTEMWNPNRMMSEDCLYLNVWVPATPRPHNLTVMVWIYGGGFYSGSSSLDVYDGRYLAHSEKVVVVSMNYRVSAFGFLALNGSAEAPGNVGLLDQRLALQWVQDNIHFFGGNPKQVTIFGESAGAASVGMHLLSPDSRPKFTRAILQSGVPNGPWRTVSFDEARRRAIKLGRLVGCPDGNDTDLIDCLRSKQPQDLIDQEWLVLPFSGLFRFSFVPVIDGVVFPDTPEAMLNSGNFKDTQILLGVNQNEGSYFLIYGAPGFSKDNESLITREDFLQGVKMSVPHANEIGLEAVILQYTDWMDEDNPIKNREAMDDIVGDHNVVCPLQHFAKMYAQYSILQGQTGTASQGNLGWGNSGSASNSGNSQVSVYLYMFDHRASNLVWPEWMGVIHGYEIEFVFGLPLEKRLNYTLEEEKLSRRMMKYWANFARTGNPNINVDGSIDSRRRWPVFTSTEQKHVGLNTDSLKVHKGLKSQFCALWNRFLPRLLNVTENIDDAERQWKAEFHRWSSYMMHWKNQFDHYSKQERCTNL
Chain of Histamine H3 receptor (Q9Y5N1 whole entry): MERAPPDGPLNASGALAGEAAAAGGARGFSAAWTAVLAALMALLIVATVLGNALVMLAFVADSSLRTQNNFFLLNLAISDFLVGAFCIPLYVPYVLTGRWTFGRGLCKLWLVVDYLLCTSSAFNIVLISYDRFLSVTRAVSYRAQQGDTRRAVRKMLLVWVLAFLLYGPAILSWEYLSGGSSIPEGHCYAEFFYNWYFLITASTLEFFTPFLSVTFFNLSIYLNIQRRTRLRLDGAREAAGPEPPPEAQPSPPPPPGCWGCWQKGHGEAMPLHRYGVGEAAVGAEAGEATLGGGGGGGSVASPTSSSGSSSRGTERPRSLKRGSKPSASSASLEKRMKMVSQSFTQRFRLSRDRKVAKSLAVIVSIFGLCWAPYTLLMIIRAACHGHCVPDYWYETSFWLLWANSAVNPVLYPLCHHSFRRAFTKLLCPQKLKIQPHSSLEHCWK

On to `Clc1cccc(OCCCCCCCN2CCCCCC2)c1`, for which the IC50 (usually the concentration that inhibits the measured activity by half) was 2.42 µM in [1] and 0.9 µM in [2].
For `CC1CCCN(CCCCCCCOc2ccc(Cl)cc2)C1` (stereo not given), the IC50 is 4.51 µM in test [1] and over 10 µM in [2]. Further, the inhibition (in general, the drop in the measured response relative to a control, in per cent) in [3] was under 50%. Besides, in [4], the inhibition result was “Active”.
Consider `CC1CCCN(CCCCCOc2ccc(Cl)cc2)C1` (stereo not given), for which the values for the IC50 in test [1] and in test [2] were 23.6 µM and over 10 µM, respectively. This compound registered an inhibition in test [3] of under 50%.
For the compound `Clc1ccc(OCCCCCCN2CCCCC2)cc1`, the IC50 in test [1] and in test [2] was over 10 µM throughout. Besides, the inhibition in test [5] and in test [3] was under 50% in each case.
As for `CC1CCN(CCCCCCCOc2cccc(Cl)c2)CC1`, the IC50 is 4.9 µM in test [1] and 1.66 µM in test [2].
`CC1CCN(CCCCCCCOc2ccc(Cl)cc2)CC1`: the figures for the IC50 in test [1] and in test [2] were 2.74 µM and 2.92 µM, respectively.
With `Clc1ccc(OCCCCCCN2CCCCCC2)cc1`, the IC50 amounted to 3.88 µM in test [1] and 3.74 µM in [2].
In the same order, the values of `CC1CCN(CCCCCCOc2ccc(Cl)cc2)CC1` are 8.11 µM and 5.43 µM.
Consider `c1cc2c(cc1OCCCN1CCCCC1)CN1CCCC1=N2`, for which inhibition in [6] was half-maximal at 8.2 µM (IC50).
Take `Clc1cccc(OCCCCCCN2CCCCC2)c1`: the IC50 in test [1] is 18.6 µM; in test [2], over 10 µM. This compound showed an inhibition in test [3] of under 50%.
`CC1CCN(CCCCCCOc2cccc(Cl)c2)CC1`: the IC50 was found to be 7.31 µM in [1] and 3.53 µM in test [2].
Consider `Clc1cccc(OCCCCCCN2CCCCCC2)c1`, for which the IC50 in [1] stood at 5.4 µM; in [2] it was 2.43 µM.
Regarding `CC1CCCN(CCCCCCOc2cccc(Cl)c2)C1` (stereo not given), the IC50 in test [1] was 6.22 µM; in test [2], over 10 µM. In test [3], the inhibition was under 50%.
Regarding `CC1CCCN(CCCCCCOc2ccc(Cl)cc2)C1` (stereo not given), the IC50 in test [1] was 4.8 µM; in [2], over 10 µM. The inhibition in [3] was under 50%.
For the compound `Clc1ccc(OCCCOCCCN2CCCCCC2)cc1`, the IC50 in [1] came out at 7.91 µM; in test [2], 4.97 µM.
For the compound `Clc1cccc(OCCCCCCCN2CCCCC2)c1`, the results for the IC50 in [1] and in test [2] were 5.33 µM and 4.75 µM, respectively.
Turning to `Clc1ccc(OCCCCCCCN2CCCCCC2)cc1`, the IC50 in test [1] was found to be 1.93 µM; in test [2], 1.64 µM. Also, the inhibition entry in [7] and in test [8] was “Active” throughout.
For `Clc1ccc(OCCCCCN2CCCCCC2)cc1`, the results for the IC50 in test [1] and in test [2] were over 10 µM and 3.45 µM, respectively. For the same compound, the inhibition in [5] was under 50%.
For the compound `CC1CCN(CCCCCOc2ccc(Cl)cc2)CC1`, the IC50 in [1] and in test [2] was over 10 µM in each case. Besides, the inhibition in test [5] and in [3] was under 50% in each case.
For `Clc1ccc(OCCCCCN2CCCCC2)cc1`, the IC50 in test [1] and in test [2] was over 10 µM throughout. Also, the inhibition in test [5] and in [3] was under 50% in each case.
Regarding `Clc1ccc(OCCCCCCCN2CCCCC2)cc1`, the IC50 was 3.94 µM in test [1] and over 10 µM in test [2]. In addition, in [3], the inhibition was under 50%.
On to `CC1CCCN(CCCCCCCOc2cccc(Cl)c2)C1` (stereo not given), for which the IC50 in test [1] was determined as 3.8 µM; in [2], 5.15 µM. The Ki – broadly, a measure of affinity in units of concentration, obtained from inhibition or displacement – in test [9] was 0.446 µM.
